Assay results from patent US12384800B2, “Antitumoral compounds” (priority 2017, dated 2025).

Tests used:
MDA-MB-231 tumors = assay: Human breast xenograft, tumor volume
A2780 tumors = assay: Human ovarian xenograft, tumor volume
HGC27 tumors = assay: Human gastric xenograft, tumor volume
Experimental: (§7) Female athymic nu/nu mice (Harlan Laboratories Models, S.L. Barcelona, Spain or Envigo, Spain) were utilized for all experiments. Animal were housed in individually ventilated cages Sealsafe® Plus, Techniplast S.P.A.), up to ten per cage on a 12-hour light-dark cycle at 21-23° C. and 40-60% humidity. […] Animals were acclimated for at least 5 days prior to tumor implantation with a tumor cell suspension.
HGC27 cells were maintained in vitro at 37° C. with 5% CO2 in Iscove's Modified Dulbecco's Medium (Sigma Aldrich, Co). Culture cells were passage every 3 to 5 days on reaching confluence. Each animal was subcutaneously implanted (on the right flank using 26G needle and a 1 cc syringe) at 4-6 weeks of age with 5×10^6 HGC-27 cells suspended in 0.05 mL of a solution consisting of 50% Matrigel® (Corning Incorporated Life Sciences), 50% medium without serum or antibiotics.
(§8) Treatment tolerability was assessed by monitoring body weight evolution, clinical signs of systemic toxicity, as well as evidences of local damage in the injection site.
In Xenograft Studies with Other Cell Lines: • Tumor volume was calculated using the equation (a·b^2)/2, where a: length (longest diameter) and b: width (shortest diameter) were measured in mm by using digital caliper (Fowler Sylvac, S235PAT).
(§9) Treatments producing >20% lethality and/or 20% net body weight loss were considered toxic.

H460 tumors = assay: Human lung (NSCLC) xenograft, tumor volume
HT1080 tumors = assay: Human fibrosarcoma xenograft, total diameter (tumor + leg)
Experimental: as §7
HT1080 cells were maintained in vitro at 37° C. with 5% CO2 in Minimum Essential Medium Eagle (MEME) (Sigma-Aldrich, Co). Each animal was orthotopically implanted into gastroecnemius muscle by an intramuscular injection using a 26G needle and a 1 cc syringe at 4-6 weeks of age, with 10×10^6 HT1080 cells, suspended in serum free medium, without antibiotics.
as §8
In xenograft studies with HT1080 cell line: • Total diameter (tumor+leg) measurements were determined by using digital caliper (Fowler Sylvac, S235PAT).
as §9

[1] = tested on: A549 cells (lung carcinoma, NSCLC); assay: cells; details: A549, SRB; for GI50: 72 hours treatment; for TGI: total cell growth inhibition; for TGI / CC50: 72 hours; for CC50: read-out: LC50, 50% net cell killing
Text: (§1) The aim of this assay is to evaluate the in vitro cytostatic (ability to delay or arrest tumor cell growth) or cytotoxic (ability to kill tumor cells) activity of the samples being tested.
(§2) A colorimetric assay, using sulforhodamine B (SRB) reaction has been adapted to provide a quantitative measurement of cell growth and viability (following the technique described by Skehan et al. J. Natl. Cancer Inst. 1990, 82, 1107-1112). Another colorimetric assay based on 3-(4,5-Dimethylthiazol-2-yl)-2,5-diphenyltetrazolium bromide (MTT) reduction to a purple formazan has been also used to assess the antiproliferative activity (following the technique described by Mosmann et al. J. Immunol. Meth. 1983, 65, 55-63).
(§3) These forms of assays employ 96-well cell culture microplates following the standards of the American National Standards Institute and the Society for Laboratory Automation and Screening (ANSI SLAS 1-2004 (R2012) Oct. 12, 2011. All the cell lines used in this study were obtained from the American Type Culture Collection (ATCC) and derive from different types of human cancer.
(§4) A549, HT29, MDA-MB-231 and PSN1 cells were maintained in Dulbecco's Modified Eagle Medium (DMEM) while PC-3 and 22Rv1 cells were maintained in Roswell Park Memorial Institute Medium (RPMI). All cell lines were supplemented with 10% Fetal Bovine Serum (FBS), 2 mM L-glutamine, 100 U/mL penicillin, and 100 […] at 37° C., 5% CO2 and 98% humidity. For the experiments, cells were harvested from subconfluent cultures using trypsinization and resuspended in fresh medium before counting and plating.
(§5) A549, HT29, MDA-MB-231 and PSN1 cells were seeded in 96 well microtiter plates, at 5000 cells per well in aliquots of 150 μL, and allowed to attach to the plate surface for 18 hours (overnight) in drug free medium. After that, one control (untreated) plate of each cell line was fixed (as described below) and used for time zero reference value. Culture plates were then treated with test compounds (50 μL aliquots of 4× stock solutions in complete culture medium plus 4% DMSO) using ten ⅖ serial dilutions (concentrations ranging from 10 to 0.003 μg/mL) and triplicate cultures (1% final concentration in DMSO). After 72 hours treatment, the antitumor effect was measured by using the SRB methodology: Briefly, cells were washed twice with PBS, fixed for 15 min in 1% glutaraldehyde solution at room temperature, rinsed twice in PBS, and stained in 0.4% SRB solution for 30 min at room temperature. Cells were then rinsed several times with 1% acetic acid solution and air-dried at room temperature.
(§6) Effects on cell growth and survival were estimated by applying the NCI algorithm (Boyd M R and Paull K D. Drug Dev. Res. 1995, 34, 91-104). The values obtained in triplicate cultures were fitted by nonlinear regression to a four-parameters logistic curve by nonlinear regression analysis.

[2] = tested on: HT29 cells (colorectal adenocarcinoma); assay: cells; details: HT29, SRB; for GI50: 72 hours treatment; for TGI: total cell growth inhibition; for TGI / CC50: 72 hours; for CC50: read-out: LC50, 50% net cell killing
Text: as §1, §2, §3, §4, §5, §6

[3] = tested on: MDA-MB-231 cells (breast adenocarcinoma); assay: cells; details: MDA-MB-231, SRB; for GI50: 72 hours treatment; for TGI: total cell growth inhibition; for TGI / CC50: 72 hours; for CC50: read-out: LC50, 50% net cell killing
Text: as §1, §2, §3, §4, §5, §6

[4] = tested on: PSN1 cells (pancreas adenocarcinoma); assay: cells; details: PSN1, SRB; for GI50: 72 hours treatment; for TGI: total cell growth inhibition; for TGI / CC50: 72 hours; for CC50: read-out: LC50, 50% net cell killing
Text: as §1, §2, §3, §4, §5, §6

Compound: COc1c(C)cc2c(c1O)[C@@H]1[C@@H]3[C@@H]4SC[C@]5(N[C@@H](CN)Cc6c5[nH]c5ccccc65)C(=O)OC[C@@H](c5c6c(c(C)c(OC(C)=O)c54)OCO6)N3[C@@H](O)[C@H](C2)N1C [Compound 12-R]
- Median Tumor Volume (MDA-MB-231 tumors; Day 2): 223.0 mm^3
- Median Tumor Volume (MDA-MB-231 tumors; Day 5): 296.1 mm^3
- Median Tumor Volume (MDA-MB-231 tumors; Day 7): 378.3 mm^3
- Median Tumor Volume (MDA-MB-231 tumors; Day 9): 472.7 mm^3
- Median Tumor Volume (MDA-MB-231 tumors; Day 12): 609.9 mm^3
- Median Tumor Volume (MDA-MB-231 tumors; Day 14): 782.5 mm^3
- Median Tumor Volume (MDA-MB-231 tumors; Day 16): 972.4 mm^3
- Median Tumor Volume (MDA-MB-231 tumors; Day 19): 1211.0 mm^3
- Median Tumor Volume (MDA-MB-231 tumors; Day 21): 1463.4 mm^3
- Median Tumor Volume (MDA-MB-231 tumors; Day 23): 1756.5 mm^3
- Median Tumor Volume (MDA-MB-231 tumors; Day 26): 2028.6 mm^3
- Median Tumor Volume (A2780 tumors; Day 2): 302.8 mm^3
- Median Tumor Volume (A2780 tumors; Day 5): 786.5 mm^3
- Median Tumor Volume (A2780 tumors; Day 7): 1113.3 mm^3
- Median Tumor Volume (A2780 tumors; Day 9): 1490.6 mm^3
- Median Tumor Volume (A2780 tumors; Day 12): 2025.00 mm^3
- Median Tumor Volume (A2780 tumors; Day 14): 2025.00 mm^3
- Median Tumor Volume (HGC27 tumors; Day 2): 413.3 mm^3
- Median Tumor Volume (HGC27 tumors; Day 5): 809.1 mm^3
- Median Tumor Volume (HGC27 tumors; Day 7): 1261.5 mm^3
- Median Tumor Volume (HGC27 tumors; Day 9): 1589.5 mm^3
- Median Tumor Volume (HGC27 tumors; Day 12): 2017.9 mm^3
- Median Tumor Volume (HGC27 tumors; Day 14): 2034.9 mm^3
- Median Tumor Volume (H460 tumors; Day 2): 410.7 mm^3
- Median Tumor Volume (H460 tumors; Day 5): 796.7 mm^3
- Median Tumor Volume (H460 tumors; Day 7): 1167.9 mm^3
- Median Tumor Volume (H460 tumors; Day 9): 1360.3 mm^3
- Median Tumor Volume (H460 tumors; Day 12): 1666.0 mm^3
- Median Tumor Volume (H460 tumors; Day 14): 2025.0 mm^3
- Total diameter (tumor + leg) (HT1080 tumors; Day 2): 8.9 mm
- Total diameter (tumor + leg) (HT1080 tumors; Day 5): 8.8 mm
- Total diameter (tumor + leg) (HT1080 tumors; Day 7): 9.5 mm
- Total diameter (tumor + leg) (HT1080 tumors; Day 9): 9.5 mm
- Total diameter (tumor + leg) (HT1080 tumors; Day 12): 11.0 mm
- Total diameter (tumor + leg) (HT1080 tumors; Day 14): 11.7 mm
- Total diameter (tumor + leg) (HT1080 tumors; Day 16): 12.9 mm
- Total diameter (tumor + leg) (HT1080 tumors; Day 19): 13.5 mm
- Total diameter (tumor + leg) (HT1080 tumors; Day 21): 15.5 mm
- Total diameter (tumor + leg) (HT1080 tumors; Day 23): 18.0 mm

Compound: COc1ccc2[nH]c3c(c2c1)C[C@H](C(=O)O)N[C@]31CS[C@@H]2c3c(OC(C)=O)c(C)c4c(c3[C@H](COC1=O)N1[C@@H]2[C@H]2c3c(cc(C)c(OC)c3O)C[C@@H]([C@@H]1C#N)N2C)OCO4 [Compound 28-R, reference compound]
- GI50 [1]: 167 nM
- TGI [1]: 3.58E−07 Molar
- CC50 [1]: > 1190 nM
- GI50 [2]: 31 nM
- TGI [2]: 3.34E−08 Molar
- CC50 [2]: > 1190 nM
- GI50 [3]: 19.1 nM
- TGI [3]: 3.22E−08 Molar
- CC50 [3]: 91.9 nM
- GI50 [4]: 21.5 nM
- TGI [4]: 3.58E−08 Molar
- CC50 [4]: 66.8 nM

Compound: COc1ccc2[nH]c3c(c2c1)C[C@@H](C(=O)O)N[C@]31CS[C@@H]2c3c(OC(C)=O)c(C)c4c(c3[C@H](COC1=O)N1[C@@H]2[C@H]2c3c(cc(C)c(OC)c3O)C[C@@H]([C@@H]1C#N)N2C)OCO4 [Compound 28-S, reference compound]
- GI50 [1]: 489 nM
- TGI [1]: >1.19E−06 Molar
- CC50 [1]: > 1190 nM
- GI50 [2]: 251 nM
- TGI [2]: 3.46E−07 Molar
- CC50 [2]: 633 nM
- GI50 [3]: 167 nM
- TGI [3]: 2.51E−07 Molar
- CC50 [3]: 394 nM
- GI50 [4]: 251 nM
- TGI [4]: 3.94E−07 Molar
- CC50 [4]: 692 nM

Compound: COc1c(C)cc2c(c1O)[C@@H]1[C@@H]3[C@@H]4SC[C@]5(NCCc6c5oc5ccccc65)C(=O)OC[C@@H](c5c6c(c(C)c(OC(C)=O)c54)OCO6)N3[C@@H](C#N)[C@H](C2)N1C [Compound 31]
- GI50 [1]: 19.6 nM
- TGI [1]: 2.09E−08 Molar
- CC50 [1]: 23.5 nM
- GI50 [2]: 10.5 nM
- TGI [2]: 1.57E−08 Molar
- CC50 [2]: > 131 nM
- GI50 [3]: 8.89 nM
- TGI [3]: 1.70E−08 Molar
- CC50 [3]: 35.3 nM
- GI50 [4]: 6.8 nM
- TGI [4]: 1.57E−08 Molar
- CC50 [4]: 43.1 nM

Compound: COc1ccc2oc3c(c2c1)CCN[C@]31CS[C@@H]2c3c(OC(C)=O)c(C)c4c(c3[C@H](COC1=O)N1[C@@H]2[C@H]2c3c(cc(C)c(OC)c3O)C[C@@H]([C@@H]1C#N)N2C)OCO4 [Compound 34]
- GI50 [1]: 59.1 nM
- TGI [1]: 8.05E−08 Molar
- CC50 [1]: > 126 nM
- GI50 [2]: 54.1 nM
- TGI [2]: 8.55E−08 Molar
- CC50 [2]: 125 nM
- GI50 [3]: 45.3 nM
- TGI [3]: 7.67E−08 Molar
- CC50 [3]: 112 nM
- GI50 [4]: 54.1 nM
- TGI [4]: 5.91E−08 Molar
- CC50 [4]: > 126 nM

Compound: COc1c(C)cc2c(c1O)[C@@H]1[C@@H]3[C@@H]4SC[C@]5(N[C@@H](CO)Cc6c5oc5ccccc65)C(=O)OC[C@@H](c5c6c(c(C)c(OC(C)=O)c54)OCO6)N3[C@@H](C#N)[C@H](C2)N1C [Compound 38-R]
- GI50 [1]: 0.654 nM
- TGI [1]: 1.04E−09 Molar
- CC50 [1]: > 126 nM
- GI50 [2]: 0.541 nM
- TGI [2]: 5.91E−10 Molar
- CC50 [2]: > 126 nM
- GI50 [3]: 0.453 nM
- TGI [3]: 8.43E−10 Molar
- CC50 [3]: 2.01 nM
- GI50 [4]: 0.654 nM
- TGI [4]: 9.94E−10 Molar
- CC50 [4]: 1.76 nM

Compound: COc1c(C)cc2c(c1O)[C@@H]1[C@@H]3[C@@H]4SC[C@]5(N[C@H](CO)Cc6c5oc5ccccc65)C(=O)OC[C@@H](c5c6c(c(C)c(OC(C)=O)c54)OCO6)N3[C@@H](C#N)[C@H](C2)N1C [Compound 38-S]
- GI50 [1]: 8.05 nM
- TGI [1]: 8.55E−09 Molar
- CC50 [1]: 9.44 nM
- GI50 [2]: 4.53 nM
- TGI [2]: 7.05E−09 Molar
- CC50 [2]: > 126 nM
- GI50 [3]: 2.52 nM
- TGI [3]: 4.28E−09 Molar
- CC50 [3]: 7.8 nM
- GI50 [4]: 5.03 nM
- TGI [4]: 8.18E−09 Molar
- CC50 [4]: 15.1 nM
